The subject of one test is MAPKAPK2. Kind of test: Inhibition of MAPKAPK2 in GFP-MAPKAPk2_BHK cell model (nuclear translocation). The class given is cell-based. The settings on record: GFP-MAPKAPk2_BHK cells. The procedure: In order to study p38α inhibition in a cell system, we investigated the ability of all compounds to inhibit the phosphorylation of mitogen-activated protein-kinase-activated protein kinase 2 (MAPKAPK2). Each compound was prepared at […] concentrations (1, 3, 10 and 30 nM, 0.1 and 0.3 μM), and the percentages of inhibition were calculated from the numbers of cells after treatment with the different compounds.
GFP-MAPKAPk2_BHK cells were cultured in 96-well plates (2.0 × 10^4/100 μL/well) containing 10% heat-inactivated foetal bovine serum (FBS) and 1 mg/mL G418 at 37 °C in humidified air containing 5% CO2 for 18–24 h. The cells were washed with nutrient solution (100 μL/well) and changed to the compound liquid (100 μL/well). Experiments were set up with the control, and the compound was repeated at each concentration in three wells. The cells were cultured in 96-well plates at 37 °C in humidified air containing 5% CO2 for 90 min. The cells were washed with the dye solution (20 μL/well), and the dyed cells were held for 1 hour at room temperature in the dye liquid. Analysis of nuclear translocation and calculation of the ability of the compounds to inhibit nuclear translocation was performed using the IN Cell Analyzer 1000 Nuclear Trafficking Analysis Module System (GE, Madison, WI, USA). The cultured cells were treated with the obtained compounds in […] concentration grads (1, 3, 10 and 30 nM, 0.1 and 0.3 μM). The inhibitory percentage can be calculated using the amounts of cells after the disposition of the different compounds.

Test [1] concerns TNF-α release from THP-1 cells. Kind of test: Inhibition of TNF-α release from THP-1 cells after LPS stimulation. In kind it is cell-based. The settings on record: Homo sapiens; LPS-stimulated THP-1 cells. The procedure:
LPS stock was prepared at 1 mg/mL by adding 1 mL sterile endotoxin-free water to 1 mg LPS powder. The LPS stock was aliquoted and stored at −20 °C. […] An amount of 100 K THP-1 cells were seeded into a 96-well cell culture plate in 100 μL of test medium. […] A total of 10 μL compound was added to the plate with cells, and the cells were incubated for 1 hour at 37 °C. An amount of 10 μL/well LPS was added to stimulate the cells. The final LPS concentration was 300 ng/mL, and the DMSO concentration was 0.3%. […]. The plate was incubated for 5 hours at 37 °C. […] Three replicates were used for each dose. At the 5th hour, the TNF-α in the supernatants and standard curve samples was determined using the HTRF kit. […] Amounts of 5 μL Anti-TNF-α-Cryptate (Invitrogen, Carlsbad, CA, USA) and 5 μL Anti-TNFα-XL665 (Invitrogen) were added, and the plate was incubated at RT for 15 h. The plate was read on an Envision instrument (PerkinElmer) and the IC50 was calculated.

Another test has as its target MAPK14/p38α (Homo sapiens, UniProt Q16539). The test can be described thus: p38α MAP kinase activity, phosphorylation of ATF-2 (TR-FRET). In kind it is biochemical. The following applies: enzyme. On the procedure: Kinase reaction buffer was composed of 50 mM HEPES (pH 7.5), 0.01% BRIJ-35, 10 mM MgCl2 and 1 mM EGTA. Prepared MAPK14/p38α in 1× kinase buffer with concentration at 500 ng/mL. A 2-fold serial dilution was performed using 1× kinase buffer from 500 ng/mL using 16 dose points. […] The reaction was started by adding 5 μL of the GFP-ATF2(19–96) substrate and ATP solution into each well of the assay plate. The final starting concentration of MAPK14/p38α was 250ng/ml, and the final GFP-ATF2 and ATP concentrations were 0.4 μM and 90 μM, respectively. The assay plate was sealed and incubated for 1 hour at room temperature (RT). Antibody solution (1 mL) was prepared from 20 mM EDTA and 4 nM Tb-antipATF2 (pThr71) antibody in TR-FRET dilution buffer. Antibody solution (10 μL) was added into each well of the assay plate and mixed gently. The final EDTA concentration was 10 mM, and the final Tb-antipATF2 (pThr71) concentration was 2 nM. The assay plate was sealed and incubated for 30 minutes at RT.
Inhibitor in 0.5% DMSO (2 μL/well) at 5-fold the final assay concentration was added into a 384-well assay plate. […] MAPK14/p38α (4 μL/well) was added to each well of the 384-well assay plate and incubated for 15 min at RT. To start the reaction, substrate GFP-ATF2 (19–96) and ATP (4 μL/well) were added into kinase reaction buffer. […] The resulting TR-FRET emission ratio was plotted against the concentration of inhibitor, and the data fitted to a sigmoidal dose-response curve with a variable slope. The IC50 concentration was calculated from the curve.
A general note: Time-resolved FRET reads energy transfer from a long-lived donor to a nearby acceptor.

Test [2] deals with p38α mitogen-activated protein kinase (Homo sapiens, UniProt Q16539). The test can be described thus: Surface plasmon resonance (Biacore) binding to p38α. The following applies: SPR, 25 °C. On the procedure: To assess the binding ability between the compounds and p38α protein, we used SPR for kinase inhibitor interaction studies.
p38α mitogen-activated protein kinase, sequence (Q16539 whole entry): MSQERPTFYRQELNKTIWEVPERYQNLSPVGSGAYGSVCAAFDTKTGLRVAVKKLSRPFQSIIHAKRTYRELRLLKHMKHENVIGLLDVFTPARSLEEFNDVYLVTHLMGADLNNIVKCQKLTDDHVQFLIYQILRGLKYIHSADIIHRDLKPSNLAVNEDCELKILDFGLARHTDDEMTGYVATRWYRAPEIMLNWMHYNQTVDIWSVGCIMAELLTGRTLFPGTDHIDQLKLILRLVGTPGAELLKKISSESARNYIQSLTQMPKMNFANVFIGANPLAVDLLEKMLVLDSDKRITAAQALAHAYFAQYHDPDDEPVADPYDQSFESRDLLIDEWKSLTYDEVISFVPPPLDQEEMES
The Biacore instrument uses a technique based on surface plasmon resonance to follow the real-time binding of compounds to immobilized proteins on a carboxymethyl dextran surface in a liquid milieu. Compounds were stored as 10 mM stock solutions in 100% dimethyl sulfoxide (DMSO). All light-sensitive compounds were handled under yellow protective light. […] ATP was dissolved directly in running buffer to make a 10 mM solution. The run was started with five start-up cycles in which running buffer was injected (instead of a sample) followed by sample injection cycles. Zero concentration samples were used as blanks. A typical analysis cycle consisted of a 60 s sample injection (30 μL/min), 120–200 s of buffer flow (dissociation phase), followed by a needle and tubing wash with 50% DMSO and buffer, and finally, a 30 s buffer injection to check for sample carry over. The flow cell temperature was 25 °C. Between sample series, a solvent correction cycle was run according to the instrument manual to adjust for referencing errors due to refractive index mismatches between running buffer and samples [35].
Background: In SPR one partner is held on a chip, and binding of the other changes the refractive index at the surface.

MAPK14/p38α, sequence (Q16539 whole entry): as above

In the case of `CC(C)(C)c1cc(NC(=O)NCc2ccccc2Oc2ccc3[nH]ncc3c2)n(-c2ccc(Cl)cc2)n1` [25e, 1-(2-((1H-Indazol-5-yl)oxy)benzyl)-3-(3-(tert-butyl)-1-(4-chlorophenyl)-1H-pyrazol-5-yl)urea], the IC50 (commonly the point on the concentration scale where inhibition reaches its midpoint) with MAPKAPK2 turned out to be 0.00992 ± 0.00065 µM; in test [1], 3.48 ± 0.46 nM.

Regarding `CC(C)(C)c1cc(NC(=O)NCc2cc(F)ccc2Oc2ccc3c(c2)CCCC3O)n(-c2ccc([N+](=O)[O-])cc2)n1` (stereo not drawn) [27d, 1-(3-(tert-Butyl)-1-(4-nitrophenyl)-1H-pyrazol-5-yl)-3-(5-fluoro-2-((5-hydroxy-5,6,7,8-tetrahydro-naphthalen-2-yl)oxy)benzyl)urea], the half-maximal inhibitory concentration (IC50) in test [1] amounted to 130 ± 3.33 nM; at MAPK14/p38α (GFP-ATF2 substrate, 90 μM ATP), 0.00576 ± 0.00024 µM.

For `CC(C)(C)c1cc(NC(=O)NCc2ccccc2Oc2ccc3[nH]ncc3c2)n(-c2ccccc2)n1` [25b, 1-(2-((1H-Indazol-5-yl)oxy)benzyl)-3-(3-(tert-butyl)-1-phenyl-1H-pyrazol-5-yl)urea], the IC50 worked out at 0.00245 ± 0.00059 µM with MAPKAPK2; 1 ± 0.09 nM in test [1]; 0.0008 ± 3e-05 µM on MAPK14/p38α (GFP-ATF2 substrate, 90 μM ATP). The Kd (as a rule, a measure of binding affinity in units of concentration) in test [2] was found to be 382 nM.

Take `CC(C)(C)c1cc(NC(=O)NCc2ccccc2Oc2ccc3[nH]ncc3c2)n(-c2ccc(S(N)(=O)=O)cc2)n1` [25k, 4-(5-(3-(2-((1H-Indazol-5-yl)oxy)benzyl)ureido)-3-(tert-butyl)-1H-pyrazol-1-yl)benzenesulfonamide]: the IC50 in the test on MAPKAPK2 was found to be 0.039 ± 0.00576 µM; in test [1], 8.69 ± 0.01 nM.

As for `CC(C)(C)c1cc(NC(=O)NCc2ccccc2Oc2ccc3[nH]ncc3c2)n(-c2ccc(Br)cc2)n1` [25f, 1-(2-((1H-Indazol-5-yl)oxy)benzyl)-3-(1-(4-bromophenyl)-3-(tert-butyl)-1H-pyrazol-5-yl)urea], the IC50 in the test with MAPKAPK2 is 0.0074 ± 0.00087 µM; in test [1], 1.82 ± 0.15 nM; on MAPK14/p38α (GFP-ATF2 substrate, 90 μM ATP), 0.00073 ± 1e-05 µM.

In the case of `COc1ccc(-n2nc(C(C)(C)C)cc2NC(=O)NCc2ccccc2Oc2ccc3[nH]ncc3c2)cc1` [25d, 1-(2-((1H-Indazol-5-yl)oxy)benzyl)-3-(3-(tert-butyl)-1-(4-methoxyphenyl)-1H-pyrazol-5-yl)urea], the IC50 with MAPKAPK2 was 0.00545 ± 0.00043 µM; in test [1], 1.43 ± 0.07 nM; on MAPK14/p38α (GFP-ATF2 substrate, 90 μM ATP) it was 0.00122 ± 0.00032 µM.

Take `Cc1cccc(-n2nc(C(C)(C)C)cc2NC(=O)NCc2ccccc2Oc2ccc3[nH]ncc3c2)c1` [25c, 1-(2-((1H-Indazol-5-yl)oxy)benzyl)-3-(3-(tert-butyl)-1-(m-tolyl)-1H-pyrazol-5-yl)urea]: the IC50 in the test on MAPKAPK2 is 0.0066 ± 0.00066 µM; in test [1], 1.06 ± 0.05 nM; against MAPK14/p38α (GFP-ATF2 substrate, 90 μM ATP) it was 0.00077 ± 8e-05 µM. The dissociation constant (Kd) in test [2] came to 421 nM.

For the compound `CC(C)(C)c1cc(NC(=O)NCc2ccccc2Oc2ccc3c(c2)CCCC3O)n(-c2ccc([N+](=O)[O-])cc2)n1` (stereo not drawn) [27b, 1-(3-(tert-Butyl)-1-(4-nitrophenyl)-1H-pyrazol-5-yl)-3-(2-((5-hydroxy-5,6,7,8-tetrahydronaphthalen-2-yl)-oxy)benzyl)urea], the IC50 is 0.0985 ± 0.00589 µM in the test on MAPKAPK2; 27.5 ± 1.21 nM in test [1]; 0.00387 ± 0.00043 µM against MAPK14/p38α (GFP-ATF2 substrate, 90 μM ATP).

For the compound `CC(C)(C)c1cc(NC(=O)NCc2ccccc2Oc2ccc3c(c2)CCCC3O)n(-c2ccccc2)n1` (stereo not drawn) [27c, 1-(3-(tert-Butyl)-1-phenyl-1H-pyrazol-5-yl)-3-(2-((5-hydroxy-5,6,7,8-tetrahydronaphthalen-2-yl)oxy)-benzyl)urea], the IC50 amounted to 0.124 ± 0.00664 µM in the test with MAPKAPK2; 18.4 ± 4.35 nM in test [1]; 0.00373 ± 0.00032 µM on MAPK14/p38α (GFP-ATF2 substrate, 90 μM ATP).

As to `Cc1ccc(-n2nc(C(C)(C)C)cc2NC(=O)NCc2cc(F)ccc2Oc2ccc3c(c2)CCCC3O)cc1` (stereo not drawn) [27e, 1-(3-(tert-Butyl)-1-(p-tolyl)-1H-pyrazol-5-yl)-3-(5-fluoro-2-((5-hydroxy-5,6,7,8-tetrahydronaphthalen-2-yl)-oxy)benzyl)urea], the IC50 was 182 ± 4.35 nM in test [1] and 0.005 ± 0.00053 µM on MAPK14/p38α (GFP-ATF2 substrate, 90 μM ATP).

For `Cc1ccc(-n2nc(C(C)(C)C)cc2NC(=O)NCc2ccccc2Oc2ccc3[nH]ncc3c2)cc1` [25a, 1-(2-((1H-Indazol-5-yl)oxy)benzyl)-3-(3-(tert-butyl)-1-(p-tolyl)-1H-pyrazol-5-yl)urea], the IC50 is 0.00136 ± 0.00031 µM in the test on MAPKAPK2; 0.73 ± 0.13 nM in test [1]; 0.00047 ± 2e-05 µM on MAPK14/p38α (GFP-ATF2 substrate, 90 μM ATP). Further, binding in test [2] was characterised by a dissociation constant (Kd) of 15.4 nM.

As to `CC(C)(C)c1cc(NC(=O)NCc2ccccc2Oc2ccc3[nH]ncc3c2)n(-c2ccc(F)cc2)n1` [25g, 1-(2-((1H-Indazol-5-yl)oxy)benzyl)-3-(3-(tert-butyl)-1-(4-fluorophenyl)-1H-pyrazol-5-yl)urea], the IC50 in the test with MAPKAPK2 came out at 0.00316 ± 0.00131 µM; in test [1], 2 ± 0.01 nM; on MAPK14/p38α (GFP-ATF2 substrate, 90 μM ATP), 0.00066 ± 9e-05 µM.

For `CC(C)(C)c1cc(NC(=O)NCc2ccccc2Oc2ccc3[nH]ncc3c2)n(-c2ccc([N+](=O)[O-])cc2)n1` [25h, 1-(2-((1H-Indazol-5-yl)oxy)benzyl)-3-(3-(tert-butyl)-1-(4-nitrophenyl)-1H-pyrazol-5-yl)urea], the IC50 in the test with MAPKAPK2 was determined as 0.00264 ± 0.00056 µM; in test [1], 1.79 ± 0.48 nM; against MAPK14/p38α (GFP-ATF2 substrate, 90 μM ATP), 0.00082 ± 1e-05 µM. Moreover, in test [2], the Kd was found to be 221 nM.

Regarding `Cc1ccc(-n2nc(C(C)(C)C)cc2NC(=O)Nc2ccccc2Oc2ccc3[nH]ncc3c2)cc1` [29a, 1-(2-((1H-Indazol-5-yl)oxy)phenyl)-3-(3-(tert-butyl)-1-(p-tolyl)-1H-pyrazol-5-yl)urea], the IC50 in the test with MAPKAPK2 (bound given in µM) and against MAPK14/p38α (bound given in µM) was more than 10 µM in each case.

Turning to `Cc1ccc(-n2nc(C(C)(C)C)cc2NC(=O)NCc2ccccc2Oc2ccc3c(c2)CCCC3O)cc1` (stereo not drawn) [27a, 1-(3-(tert-Butyl)-1-(p-tolyl)-1H-pyrazol-5-yl)-3-(2-((5-hydroxy-5,6,7,8-tetrahydronaphthalen-2-yl)oxy)-benzyl)urea], the IC50 in the test on MAPKAPK2 was determined as 0.13341 ± 7e-05 µM; in test [1] it was 15.3 ± 2.56 nM; against MAPK14/p38α (GFP-ATF2 substrate, 90 μM ATP), 0.00359 ± 0.00021 µM.

With `CC(C)(C)c1cc(NC(=O)Nc2ccccc2Oc2ccc3[nH]ncc3c2)n(-c2ccccc2)n1` [29b, 1-(2-((1H-Indazol-5-yl)oxy)phenyl)-3-(3-(tert-butyl)-1-phenyl-1H-pyrazol-5-yl)urea], the 50% inhibitory concentration (IC50) with MAPKAPK2 (bound given in µM) and against MAPK14/p38α (bound given in µM) was more than 10 µM each time.

For `Cc1ccc(-n2nc(C(C)(C)C)cc2NC(=O)NCc2cc(F)ccc2Oc2ccc3[nH]ncc3c2)cc1` [25j, 1-(2-((1H-Indazol-5-yl)oxy)-5-fluorobenzyl)-3-(3-(tert-butyl)-1-(p-tolyl)-1H-pyrazol-5-yl)urea], the IC50 was 0.00361 ± 0.00243 µM with MAPKAPK2 and 0.00153 ± 7e-05 µM against MAPK14/p38α (GFP-ATF2 substrate, 90 μM ATP).

Source of the values: publication PMC6272846, “Synthesis and p38 Inhibitory Activity of Some Novel Substituted N,N′-Diarylurea Derivatives” (Molecules, 2016).
